Test results published in EP3322687B1, “2-BENZYL-INDANONE COMPOUNDS AS ANTICANCER AGENT AND A PROCESS FOR PREPARATION THEREOF” (Council of Scientific and Industrial Research, priority 2015, dated 2017).
Several values for one entry are separate records, joined by “and”; a condition that tells them apart may be missing. Equal values may be shown once.

Key:
[1] = In-vivo acute oral toxicity; set-up: species or system Swiss albino mice; details: for ALP / Albumin / Bilirubin / Body weight / Cholesterol / Creatinine / Haemoglobin / RBC / SGOT / SGPT / Serum Protein / Triglycerides / WBC: 7th day, Mean±SE, n=6
Description: In view of potent anti-cancer activity of compound 2 in in-vitro model, acute and sub-acute oral toxicity of the same was carried out in Swiss albino mice for its further development into drug product. Experiment was conducted in accordance with the Organization for Economic Cooperation and Development (OECD) test guideline No 423 (1987).
For the acute oral toxicity study, 30 mice (15 male and 15 female) were taken and divided into […] comprising 3 male and 3 female mice in each group weighing between 20-25 g. The animals were maintained at 22±5°C with humidity control and also on an automatic dark and light cycle of 12 hours. The animals were fed with the standard mice feed and provided ad libitum drinking water. Mice of group 1 (Group 1) were kept as control and animals of groups 2, 3, 4 and 5 (Groups II, III, IV & V) were kept as experimental. The animals were acclimatized for 7 days in the experimental environment prior to the actual experimentation. The test compound 2 was solubilized in dimethyl sulphoxide and then suspended in double distilled water (DDW) and was given at 5, 50, 300 and 1000mg/kg body weight to animals of groups 2, 3, 4 and 5 (Groups II, III, IV & V) respectively once orally. Control animals received only vehicle.
The animals were checked for mortality and any signs of ill health at hourly interval on the day of administration of drug and there after a daily general case side clinical examination was carried out including changes in skin, mucous membrane, eyes, occurrence of secretion and excretion and also responses like lachrymation, piloerection respiratory patterns etc. Also changes in gait, posture and response to handling were also recorded. In addition to observational study, body weights were recorded and blood and serum samples were collected from all the animals on 7th day of the experiment in acute oral toxicity. The samples were analysed for total RBC, WBC, differential leucocytes count, haemoglobin percentage and biochemical parameters like ALP, SGPT, SGOT, total cholesterol, triglycerides, creatinine, bilirubin, serum protein, tissue protein, malonaldehyde and reduced GSH activity. The animals were then sacrificed and were necropsed for any gross pathological changes. Weights of vital organs like liver, heart, kidney etc. were recorded. Table 7. Effect of compound 2 as a single acute oral dose at 5, 50, 300 and 1000 mg/kg on body weight, haematological and serum biochemical parameters in Swiss albino mice (Mean±SE; n=6; a, P<0.001 compared to control, 5, 50, 300, 1000 mg/kg)

Ehrlich Tumor (solid) = format: in vivo, Swiss mice
Description: Ehrlich ascites carcinoma (EAC) cells were collected from the peritoneal cavity of the Swiss mice harbouring 8-10 days old ascitic tumor. 1x10^7 EAC cells were injected intramuscularly in right thigh of Swiss male mice selected for the experiment on day 0. The next day, animals were randomized and divided into different groups. Two treatment groups contained 7 animals each and one control group contained 10 animals. The first treatment group was given compound 2 (20 mg/kg i/p) from day 1-9. The second treatment group was treated with 5-fluorouracil (22 mg/kg, i.p) from day 1-9 and it served as positive control. The control group was similarly administered normal saline (0.2 ml, i.p.) from day 1-9. On day 9 & 13, tumor bearing thigh of each animal was shaved and longest and shortest diameters of the tumor were measured with the help of vernier caliper. Tumor weight of each animal was calculated using the following formula. Tumor weight (mg) = (Length(mm) × ([width(mm)])^2)/(2) [formula]
The percent tumor growth inhibition was calculated on day 13 by comparing the average values of treated groups with that of control group. Tumor growth in saline treated control animals was taken to be 100%. Table 6. In-vivo anticancer activity of 2 against Ehrlich ascites carcinoma (solid)

For COc1cc(C2c3c(cc(OC)c(OC)c3OC)C(=O)C2Cc2ccc3c(c2)OCO3)cc(OC)c1OC (stereo not shown) [Compound 2, 2-(3",4"-methylenedioxybenzyl)-3-(3',4',5'-trimethoxyphenyl)-4,5,6-trimethoxy-indan-1-one], the “ALP change as compare to control groups” value ([1]; 1000 mg/kg body weight, single oral dose) was “significant changes”, the differential leucocytes counts ([1]; single acute oral dose at 5, 50, 300 and 1000 mg/kg body weight, n=6, compared to control (Figure 2)) was “Non significant changes” and the “absolute and relative organ weight” value ([1]; single acute oral dose at 5, 50, 300 and 1000 mg/kg, n=6, compared to control (Figure 1)) was “Non significant changes”. For the same compound, the “observational changes, morbidity and mortality” value ([1]; single acute oral dose, up to the dose level of 1000 mg/kg body weight) was “No observational changes, morbidity and mortality”, the ALP ([1]; single oral dose 5 mg/kg) was 167.3±16.5 U/L and the Albumin ([1]; single oral dose 5 mg/kg) was 3.63 ± 0.28 g/dL. For the same compound, the Bilirubin ([1]; single oral dose 5 mg/kg) was 0.14 ± 0.07 mg/dL, the Body weight ([1]; single oral dose 5 mg/kg) was 23.97±0.64 gm and the Cholesterol ([1]; single oral dose 5 mg/kg) was 104.0 ± 6.7 mg/dL. The Creatinine ([1]; single oral dose 5 mg/kg) was 0.56 ± 0.10 mg/dL, the Haemoglobin ([1]; single oral dose 5 mg/kg) was 13.55±0.60 gm/dL and the RBC ([1]; single oral dose 5 mg/kg) was 5.93±0.39 million/mm3. For the same compound, the SGOT ([1]; single oral dose 5 mg/kg) was 12.24±1.18 U/L, the SGPT ([1]; single oral dose 5 mg/kg) was 15.74±1.03 U/L and the “Serum Protein” value ([1]; single oral dose 5 mg/kg) was 1.07 ± 0.06 mg/mL. For the same compound, the Triglycerides ([1]; single oral dose 5 mg/kg) was 98.74 ± 3.11 mg/dL, the WBC ([1]; single oral dose 5 mg/kg) was 7.95±0.64 1000*/mm3 and the ALP ([1]; single oral dose 50 mg/kg) was 191.6±27.6 U/L. The Bilirubin ([1]; single oral dose 50 mg/kg) was 0.09 ± 0.01 mg/dL, the Body weight ([1]; single oral dose 50 mg/kg) was 24.29±0.95 gm and the Cholesterol ([1]; single oral dose 50 mg/kg) was 120.3 ± 10.4 mg/dL. For the same compound, the Creatinine ([1]; single oral dose 50 mg/kg) was 0.69 ± 0.08 mg/dL, the Haemoglobin ([1]; single oral dose 50 mg/kg) was 13.06±0.82 gm/dL and the RBC ([1]; single oral dose 50 mg/kg) was 5.83±0.17 million/mm3. For the same compound, the SGOT ([1]; single oral dose 50 mg/kg) was 25.76±5.40 U/L, the SGPT ([1]; single oral dose 50 mg/kg) was 17.92±1.69 U/L and the “Serum Protein” value ([1]; single oral dose 50 mg/kg) was 1.13 ± 0.07 mg/mL. The Triglycerides ([1]; single oral dose 50 mg/kg) was 74.95 ± 5.79 mg/dL, the WBC ([1]; single oral dose 50 mg/kg) was 7.99±0.55 1000*/mm3 and the ALP ([1]; single oral dose 300 mg/kg) was 224.0±6.70 U/L. For the same compound, the Albumin ([1]; single oral dose 300 mg/kg) was 3.63 ± 0.28 g/dL, the Body weight ([1]; single oral dose 300 mg/kg) was 23.83±0.42 gm and the Cholesterol ([1]; single oral dose 300 mg/kg) was 116.5 ± 15.6 mg/dL. The Creatinine ([1]; single oral dose 300 mg/kg) was 0.76 ± 0.03 mg/dL, the Haemoglobin ([1]; single oral dose 300 mg/kg) was 10.90±1.11 gm/dL and the RBC ([1]; single oral dose 300 mg/kg) was 6.03±0.11 million/mm3. For the same compound, the SGOT ([1]; single oral dose 300 mg/kg) was 18.71±3.16 U/L, the SGPT ([1]; single oral dose 300 mg/kg) was 18.20±1.41 U/L and the “Serum Protein” value ([1]; single oral dose 300 mg/kg) was 1.09 ± 0.06 mg/mL. The Triglycerides ([1]; single oral dose 300 mg/kg) was 104.94 ± 10.39 mg/dL, the WBC ([1]; single oral dose 300 mg/kg) was 8.13±0.64 1000*/mm3 and the ALP ([1]; single oral dose 1000 mg/kg) was 234.3±44.5 U/L. The Albumin ([1]; single oral dose 1000 mg/kg) was 3.26 ± 0.30 g/dL, the Bilirubin ([1]; single oral dose 1000 mg/kg) was 0.12 ± 0.04 mg/dL and the Body weight ([1]; single oral dose 1000 mg/kg) was 23.41±0.16 gm. The Creatinine ([1]; single oral dose 1000 mg/kg) was 0.76 ± 0.09 mg/dL, the Haemoglobin ([1]; single oral dose 1000 mg/kg) was 12.29±0.53 gm/dL and the RBC ([1]; single oral dose 1000 mg/kg) was 6.10±0.27 million/mm3. For the same compound, the SGOT ([1]; single oral dose 1000 mg/kg) was 35.49±6.57 U/L, the SGPT ([1]; single oral dose 1000 mg/kg) was 11.97±1.67 U/L and the “Serum Protein” value ([1]; single oral dose 1000 mg/kg) was 1.42 ± 0.16 mg/mL. The Triglycerides ([1]; single oral dose 1000 mg/kg) was 87.28 ± 4.39 mg/dL, the WBC ([1]; single oral dose 1000 mg/kg) was 8.57±0.76 1000*/mm3 and the “toxicity in in-vivo acute oral toxicity” value ([1]; up to 300mg/kg) was “no toxicity”. The tolerability ([1]; up to the dose level of 1000 mg/kg body weight as a single acute oral dose) was “well tolerated”, the “Day 13 Av. Tumor weights” value (Ehrlich Tumor (solid); 20 mg/kg i/p day 1-9, Day 13) was 1178.35 ± 32.72 mg and the “%Tumor Growth Inhibition” value (Ehrlich Tumor (solid); 20 mg/kg i/p day 1-9, day 13) was 42.77% and 42.771%. For the same compound, the Mortality (Ehrlich Tumor (solid); 20 mg/kg i/p day 1-9, dead/total animals) was 0/7, the “Day 13 Av. Body weights” value (Ehrlich Tumor (solid); 20 mg/kg i/p day 1-9, male Swiss mice, Day 13) was 23.28 g and the “Av. Body weights (g) of animals on days 1” value (Ehrlich Tumor (solid); 20 mg/kg i/p day 1-9, male Swiss mice, day 1) was 21.42 g. The “better activity (in-vivo) over the parent compound 12” value (Ehrlich Tumor (solid); solid tumour, 20mg/kg dose, relative to compound 12) was 19.1%.
